Results from patent US6821967B2, “Substituted piperazine derivatives, the preparation thereof and their use as medicaments” (Boehringer Ingelheim Pharma KG, priority 1999, dated 2004).

Going from `C[C@@H]1CN(c2nc3ccccc3n2C)C[C@H](C)N1CCCCC1(C(=O)NCC(F)(F)F)c2ccccc2-c2ccccc21` [Example 43, 9-{4-[cis-2,6-dimethyl-4-(1-methyl-1H-benzimidazol-2-yl)-piperazin-1-yl]-butyl}-9H-fluorene-9-carboxylic acid-(2,2,2-trifluoro-ethyl)-amide] to `C[C@@H]1CN(c2ccc3ccccc3n2)C[C@H](C)N1CCCCC1(C(=O)NCC(F)(F)F)c2ccccc2-c2ccccc21` [Example 42, 9-[4-(cis-2,6-dimethyl-4-quinolin-2-yl-piperazin-1-yl)-butyl]-9H-fluorene-9-carboxylic acid-(2,2,2-trifluoro-ethyl)-amide], the melting point rises from 77 °C to 169 °C.

Compared with `O=C(NCC(F)(F)F)C1(CCCCN2CCN(c3ccc4cccc(Cl)c4n3)CC2)c2ccccc2Oc2ccccc21` [Example 106, 9-{4-[4-(8-chloro-quinolin-2-yl)-piperazin-1-yl]-butyl}-9H-xanthene-9-carboxylic acid-(2,2,2-trifluoro-ethyl)-amide], `O=C(NCC(F)(F)F)C1(CCCCN2CCN(c3ccc4cccc(O)c4n3)CC2)c2ccccc2-c2ccccc21` [Example 31, 9-{4-[4-(8-hydroxy-quinolin-2-yl)-piperazin-1-yl]-butyl}-9H-fluorene-9-carboxylic acid-(2,2,2-trifluoro-ethyl)-amide] is higher in melting point: 68 °C for the first, 159 °C for the second.

Going from `O=C(NCc1ccc(F)cc1)C1(CCCCN2CCN(c3ccc4cccc(Cl)c4n3)CC2)c2ccccc2-c2ccccc21` [Example 55, 9-{4-[4-(8-chloro-quinolin-2-yl)-piperazin-1-yl]-butyl}-9H-fluorene-9-carboxylic acid-4-fluoro-benzylamide] to `O=C(NCc1ccc(F)cc1)C1(CCCCN2CCN(c3ncc4ccccc4n3)CC2)c2ccccc2-c2ccccc21` [Example 58, 9-[4-(4-quinazolin-2-yl-piperazin-1-yl)-butyl]-9H-fluorene-9-carboxylic acid-4-fluoro-benzylamide], the melting point rises from 66 °C to 160 °C.

Going from `C[C@@H]1CN(c2nc3ccccc3o2)C[C@H](C)N1CCCCC1(C(=O)NCc2ccc(F)cc2)c2ccccc2-c2ccccc21` [Example 69, 9-[4-(4-benzoxazol-2-yl-cis-2,6-dimethyl-piperazin-1-yl)-butyl]-9H-fluorene-9-carboxylic acid-4-fluoro-benzylamide] to `C[C@@H]1CN(c2ncc3ccccc3n2)C[C@H](C)N1CCCCC1(C(=O)NCc2ccc(F)cc2)c2ccccc2-c2ccccc21` [Example 67, 9-[4-(cis-2,6-dimethyl-4-quinazoline-2-yl-piperazin-1-yl)-butyl]-9H-fluorene-9-carboxylic acid-4-fluoro-benzylamide], the melting point rises from 153 °C to 172 °C.

Going from `Cn1c(N2CCN(CCCCC3(C(=O)NCc4ccc(F)cc4)c4ccccc4-c4ccccc43)CC2)nc2ccc(F)cc21` [Example 62, 9-{4-[4-(6-fluoro-1-methyl-1H-benzimidazol-2-yl)-piperazin-1-yl]-butyl}-9H-fluorene-9-carboxylic acid-4-fluoro-benzylamide] to `Cn1c(N2CCN(CCCCC3(C(=O)NCC(F)(F)F)c4ccccc4-c4ccccc43)CC2)nc2cc(F)ccc21` [Example 18, 9-{4-[4-(5-fluoro-1-methyl-1H-benzimidazol-2-yl)-piperazin-1-yl]-butyl}-9H-fluorene-9-carboxylic acid-(2,2,2-trifluoro-ethyl)-amide], the melting point rises from 43 °C to 59 °C.

Compared with `O=C(NCCc1ccccc1)C1(CCCCN2CCN(c3ccc4ccccc4n3)CC2)c2ccccc2-c2ccccc21` [Example 92, 9-[4-(4-quinolin-2-yl-piperazin-1-yl)-butyl]-9H-fluorene-9-carboxylic acid-(phenethyl)-amide], `O=C(NCc1ccncc1)C1(CCCCN2CCN(c3ccc4ccccc4n3)CC2)c2ccccc2-c2ccccc21` [Example 88, 9-[4-(4-quinolin-2-yl-piperazin-1-yl)-butyl]-9H-fluorene-9-carboxylic acid-(pyridin-4-ylmethyl)-amide] is higher in melting point: 55 to 57 °C for the first, 166 to 168 °C for the second.

Going from `CC1CN(CCCCC2(C(=O)NCC(F)(F)F)c3ccccc3-c3ccccc32)CCN1c1ccc2ccccc2n1` (stereo not shown) [Example 40, 9-{4-[3-methyl-4-quinolin-2-yl-piperazin-1-yl]-butyl}-9H-fluorene-9-carboxylic acid-(2,2,2-trifluoro-ethyl)-amide] to `O=C(NCC(F)(F)F)C1(CCCCN2CCN(c3ccc4cc(Cl)ccc4n3)CC2)c2ccccc2-c2ccccc21` [Example 28, 9-{4-[4-(6-chloro-quinolin-2-yl)-piperazin-1-yl]-butyl}-9H-fluorene-9-carboxylic acid-(2,2,2-trifluoro-ethyl)-amide], the melting point rises from 50 °C to 151 °C.

First: Cn1c(N2CCN(CCCCC3(C(=O)NCC(F)(F)F)c4ccccc4-c4ccccc43)CC2)nc2cccnc21 [Example 15, 9-{4-[4-(3-methyl-3H-imidazo[4,5]pyridin-2-yl)-piperazin-1-yl]-butyl}-9H-fluorene-9-carboxylic acid-(2,2,2-trifluoro-ethyl)-amide]
Second: O=C(NCC(F)(F)F)C1(CCCCN2CCN(c3nc4ccccc4o3)CC2)c2ccccc2Oc2ccccc21 [Example 101, 9-[4-(4-benzoxazol-2-yl-piperazin-1-yl)-butyl]-9H-xanthene-9-carboxylic acid-(2,2,2-trifluoro-ethyl)-amide]
The melting point of the first is lower: 60 °C for the first, 196 to 197 °C for the second.
